# Measured values as given in US6525001B1, “Substituted pyrimidine and pyridine herbicides” (Mid-American Commercialization Corporation, priority 1997, dated 2003).
# Columns and labels:
# Assay type in all cases: in vivo
# Design in all cases: key: 0 is no effect; 10 is complete control
# [1] = tested on: rice (Oryza sativa); test: Test B flood test
# Method in brief: (§1)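 Read-out is a visual response score from 0 (no effect) to 10 (complete control), assigned by comparison with untreated controls. Treatment was applied at the 2-leaf stage, and plants stayed in the greenhouse for twelve to sixteen days before scoring.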
# [2] = tested on: bamyardgrass (Echinochloa crus-galli); test: Test B flood test
# Method in brief: as §1
# [3] = tested on: smallflower flatsedge (Cyperus difformis); test: Test B flood test
# Method in brief: as §1
# [4] = tested on: duck salad (Heteranthera limosa); test: Test B flood test
# Method in brief: as §1
# [5] = tested on: broadleaf signalgrass (Brachiaria decumbens); test: Test B pre-/postemergence; conditions: for B. signalgrass plant response rating: Preemergence
# Excerpt: (§2) Seeds of bedstraw (Galium aparine), blackgrass (Alopecurus myosuroides), broadleaf signalgrass (Brachiaria decumbens), cocklebur (Xanthium strumarium), corn (Zea mays), crabgrass (Digitaria sanguinalis), giant foxtail (Setaria faberii), lambsquarters (Chenopodium album), momingglory (Ipomoea hederacea), pigweed (Amaranthus retroflexus), rape (Brassica napus), soybean (Glycine max), sugar beet (Beta vulgaris), velvetleaf (Abutilon theophrasti), wheat (Triticum aestivum), wild oat (Avena fatua) and purple nutsedge (Cyperus rotundus) tubers were planted and treated preemergence with test chemicals formulated in a non-phytotoxic solvent mixture which included a surfactant.
# (§3) At the same time, these crop and weed species were also treated with postemergence applications of test chemicals formulated in the same manner. Plants ranged in height from 2 to 18 cm (1- to 4-leaf stage) for postemergence treatments. Plant species in the flood test consisted of rice (Oryza sativa), smallflower flatsedge (Cyperus difformis), duck salad (Heteranthera limosa) and bamyardgrass (Echinochloa crus-galli) grown to the 2-leaf stage for testing. Treated plants and controls were maintained in a greenhouse for twelve to sixteen days, after which all species were compared to controls and visually evaluated. Plant response ratings, summarized in Table B, are based on a scale of 0 to 10 where 0 is no effect and 10 is complete control. A dash (−) response means no test result.
# [6] = tested on: crabgrass (Digitaria sanguinalis); test: Test B pre-/postemergence; conditions: for Crabgrass plant response rating: Preemergence
# Excerpt: as §2, §3
# [7] = tested on: purple nutsedge (Cyperus rotundus); test: Test B pre-/postemergence
# Excerpt: as §2, §3
# [8] = tested on: wheat (Triticum aestivum); test: Test B pre-/postemergence
# Excerpt: as §2, §3
# [9] = tested on: sugar beet (Beta vulgaris); test: Test B pre-/postemergence
# Excerpt: as §2, §3
# [10] = tested on: giant foxtail (Setaria faberii); test: Test B pre-/postemergence
# Excerpt: as §2, §3
# [11] = tested on: blackgrass (Alopecurus myosuroides); test: Test B pre-/postemergence; conditions: for Blackgrass plant response rating: Preemergence
# Excerpt: as §2, §3
# [12] = tested on: velvetleaf (Abutilon theophrasti); test: Test B pre-/postemergence
# Excerpt: as §2, §3
# [13] = tested on: wild oat (Avena fatua); test: Test B pre-/postemergence
# Excerpt: as §2, §3
# [14] = tested on: momingglory (Ipomoea hederacea); test: Test B pre-/postemergence
# Excerpt: as §2, §3
# [15] = tested on: bedstraw (Galium aparine); test: Test B pre-/postemergence; conditions: for Bedstraw plant response rating: Preemergence
# Excerpt: as §2, §3
# [16] = tested on: corn (Zea mays); test: Test B pre-/postemergence; conditions: for Corn plant response rating: Preemergence
# Excerpt: as §2, §3
# [17] = tested on: cocklebur (Xanthium strumarium); test: Test B pre-/postemergence; conditions: for Cocklebur plant response rating: Preemergence
# Excerpt: as §2, §3
# [18] = tested on: pigweed (Amaranthus retroflexus); test: Test B pre-/postemergence
# Excerpt: as §2, §3
# [19] = tested on: rape (Brassica napus); test: Test B pre-/postemergence
# Excerpt: as §2, §3
# [20] = tested on: soybean (Glycine max); test: Test B pre-/postemergence
# Excerpt: as §2, §3
# [21] = Rate 62 g/ha, Postemergence (flood test)
# [22] = Rate 125 g/ha, Postemergence section (flood test species)
# [23] = Rate 250 g/ha, Postemergence (flood test species)
# [24] = Rate 125 g/ha, Postemergence, flood test
# [25] = Rate 250 g/ha, Postemergence (so in the source)
smiles,measurement,setting,value
Cc1cnc(-c2ccc(Cl)cc2)nc1Cc1cccc(C#N)c1 [Compound 33],"Plant response rating, Rice",[1]; [21],1
same,Rice plant response rating,[1]; [22],1
same,"Plant response rating, Rice",[1]; [23],3
same,"Plant response rating, Barnyardgrass",[2]; [21],1
same,"Plant response rating, Barnyardgrass",[2]; [24],2
same,"Plant response rating, Barnyardgrass",[2]; [23],3
same,"Plant response rating, S. Flatsedge",[3]; [21],3
same,S. Flatsedge plant response rating,[3]; [22],7
same,"Plant response rating, S. Flatsedge",[3]; [23],8
same,"Plant response rating, Ducksalad",[4]; [21],0
same,"Plant response rating, Ducksalad",[4]; [24],1
same,"Plant response rating, Ducksalad",[4]; [23],2
same,"Plant response rating, B. signalgrass","[5]; Rate 62 g/ha, Postemergence",1
same,B. signalgrass plant response rating,[5]; Rate 62 g/ha,0
same,"Plant response rating, B. signalgrass","[5]; Rate 125 g/ha, Postemergence",1
same,B. signalgrass plant response rating,[5]; Rate 125 g/ha,1
same,"Plant response rating, B. signalgrass","[5]; Rate 250 g/ha, Postemergence",2
same,"Plant response rating, B. signalgrass","[5]; Rate 250 g/ha, Postemergence as printed in head r139 (second section for compounds 26-50)",1
same,"Plant response rating, Crabgrass","[6]; Rate 62 g/ha, Postemergence",0
same,Crabgrass plant response rating,[6]; Rate 62 g/ha,0
same,"Plant response rating, Crabgrass","[6]; Rate 125 g/ha, Postemergence",0
same,Crabgrass plant response rating,[6]; Rate 125 g/ha,0
same,"Plant response rating, Crabgrass","[6]; Rate 250 g/ha, Postemergence",1
same,"Plant response rating, Crabgrass",[6]; [25],0
same,"Plant response rating, Nutsedge","[7]; Rate 62 g/ha, Postemergence",0
same,Nutsedge plant response rating,"[7]; Rate 62 g/ha, Preemergence",0
same,Nutsedge plant response rating,"[7]; Rate 125 g/ha, Postemergence",0
same,Nutsedge plant response rating,"[7]; Rate 125 g/ha, Preemergence",0
same,"Plant response rating, Nutsedge","[7]; Rate 250 g/ha, Postemergence",0
same,Wheat plant response rating,"[8]; Rate 62 g/ha, Postemergence",0
same,Wheat plant response rating,"[8]; Rate 62 g/ha, Preemergence",0
same,Wheat plant response rating,"[8]; Rate 125 g/ha, Postemergence",1
same,"Plant response rating, Wheat","[8]; Rate 125 g/ha, Preemergence",0
same,"Plant response rating, Wheat","[8]; Rate 250 g/ha, Postemergence",1
same,"Plant response rating, Wheat",[8]; [25],1
same,"Plant response rating, Sugarbeets","[9]; Rate 62 g/ha, Postemergence",10
same,Sugarbeets plant response rating,"[9]; Rate 62 g/ha, Preemergence",0
same,Sugarbeets plant response rating,"[9]; Rate 125 g/ha, Postemergence",10
same,"Plant response rating, Sugarbeets","[9]; Rate 125 g/ha, Preemergence",1
same,"Plant response rating, Sugarbeets","[9]; Rate 250 g/ha, Postemergence",10
same,"Plant response rating, Sugarbeets",[9]; [25],4
same,"Plant response rating, Giant foxtail","[10]; Rate 62 g/ha, Postemergence",0
same,Giant foxtail plant response rating,"[10]; Rate 62 g/ha, Preemergence",0
same,Giant foxtail plant response rating,"[10]; Rate 125 g/ha, Postemergence",0
same,Giant foxtail plant response rating,"[10]; Rate 125 g/ha, Preemergence",1
same,"Plant response rating, Giant foxtail","[10]; Rate 250 g/ha, Postemergence",1
same,"Plant response rating, Giant foxtail",[10]; [25],1
same,"Plant response rating, Blackgrass","[11]; Rate 62 g/ha, Postemergence",0
same,Blackgrass plant response rating,[11]; Rate 62 g/ha,0
same,"Plant response rating, Blackgrass","[11]; Rate 125 g/ha, Postemergence",1
same,Blackgrass plant response rating,[11]; Rate 125 g/ha,0
same,"Plant response rating, Blackgrass","[11]; Rate 250 g/ha, Postemergence",2
same,"Plant response rating, Blackgrass",[11]; [25],0
same,"Plant response rating, Velvetleaf","[12]; Rate 62 g/ha, Postemergence",1
same,Velvetleaf plant response rating,"[12]; Rate 62 g/ha, Preemergence",0
same,Velvetleaf plant response rating,"[12]; Rate 125 g/ha, Postemergence",4
same,"Plant response rating, Velvetleaf","[12]; Rate 125 g/ha, Preemergence",0
same,"Plant response rating, Velvetleaf","[12]; Rate 250 g/ha, Postemergence",6
same,"Plant response rating, Velvetleaf",[12]; [25],1
same,Wild oats plant response rating,"[13]; Rate 62 g/ha, Postemergence",1
same,Wild oats plant response rating,"[13]; Rate 62 g/ha, Preemergence",0
same,Wild oats plant response rating,"[13]; Rate 125 g/ha, Postemergence",2
same,"Plant response rating, Wild oats","[13]; Rate 125 g/ha, Preemergence",0
same,"Plant response rating, Wild oats","[13]; Rate 250 g/ha, Postemergence",3
same,"Plant response rating, Wild oats",[13]; [25],1
same,"Plant response rating, Morningglory","[14]; Rate 62 g/ha, Postemergence",2
same,Morningglory plant response rating,"[14]; Rate 62 g/ha, Preemergence",0
same,Morningglory plant response rating,"[14]; Rate 125 g/ha, Postemergence",5
same,Morningglory plant response rating,"[14]; Rate 125 g/ha, Preemergence",0
same,"Plant response rating, Morningglory","[14]; Rate 250 g/ha, Postemergence",5
same,"Plant response rating, Morningglory",[14]; [25],0
same,"Plant response rating, Bedstraw","[15]; Rate 62 g/ha, Postemergence",9
same,Bedstraw plant response rating,[15]; Rate 62 g/ha,0
same,"Plant response rating, Bedstraw","[15]; Rate 125 g/ha, Postemergence",9
same,Bedstraw plant response rating,[15]; Rate 125 g/ha,1
same,"Plant response rating, Bedstraw","[15]; Rate 250 g/ha, Postemergence",9
same,"Plant response rating, Bedstraw",[15]; [25],2
same,"Plant response rating, Corn","[16]; Rate 62 g/ha, Postemergence",1
same,Corn plant response rating,[16]; Rate 62 g/ha,0
same,"Plant response rating, Corn","[16]; Rate 125 g/ha, Postemergence",1
same,Corn plant response rating,[16]; Rate 125 g/ha,0
same,"Plant response rating, Corn","[16]; Rate 250 g/ha, Postemergence",1
same,"Plant response rating, Corn",[16]; [25],0
same,"Plant response rating, Cocklebur","[17]; Rate 62 g/ha, Postemergence",3
same,Cocklebur plant response rating,[17]; Rate 62 g/ha,0
same,"Plant response rating, Cocklebur","[17]; Rate 125 g/ha, Postemergence",6
same,Cocklebur plant response rating,[17]; Rate 125 g/ha,0
same,"Plant response rating, Cocklebur","[17]; Rate 250 g/ha, Postemergence",6
same,"Plant response rating, Cocklebur",[17]; [25],0
same,"Plant response rating, Redroot pigweed","[18]; Rate 62 g/ha, Postemergence",1
same,Redroot pigweed plant response rating,"[18]; Rate 62 g/ha, Preemergence",0
same,Redroot pigweed plant response rating,"[18]; Rate 125 g/ha, Postemergence",2
same,Redroot pigweed plant response rating,"[18]; Rate 125 g/ha, Preemergence",0
same,"Plant response rating, Redroot pigweed","[18]; Rate 250 g/ha, Postemergence",7
same,"Plant response rating, Redroot pigweed",[18]; [25],2
same,"Plant response rating, Rape","[19]; Rate 62 g/ha, Postemergence",6
same,Rape plant response rating,"[19]; Rate 62 g/ha, Preemergence",0
same,Rape plant response rating,"[19]; Rate 125 g/ha, Postemergence",7
same,Rape plant response rating,"[19]; Rate 125 g/ha, Preemergence",0
same,"Plant response rating, Rape","[19]; Rate 250 g/ha, Postemergence",7
same,"Plant response rating, Rape",[19]; [25],2
same,"Plant response rating, Soybean","[20]; Rate 62 g/ha, Postemergence",1
same,Soybean plant response rating,"[20]; Rate 62 g/ha, Preemergence",0
same,Soybean plant response rating,"[20]; Rate 125 g/ha, Postemergence",2
same,"Plant response rating, Soybean","[20]; Rate 125 g/ha, Preemergence",0
same,"Plant response rating, Soybean","[20]; Rate 250 g/ha, Postemergence",4
same,"Plant response rating, Soybean",[20]; [25],0
